Biological target: T1, Recombinant human Met (c-Met) (Homo sapiens, UniProt P08581)
T1 construct: purchased Invitrogen PV3143
Assay: Inhibition of c-Met kinase activity using Transcreener FP assay
Type: biochemical
Conditions: Poly E4Y substrate, 28° C. 45 min, read-out: IC50, inhibition of c-Met kinase activity
Method: Compound dilution: dilute test articles to 5 folds of the testing concentration using 20% DMSO.
The mixture is kept on ice until use;
Prepare ATP standard curve stock as following:
3. Enzymatic reaction: in 96-well reaction plate
Add 5 μL of test article or 5 μL of 20% DMSO or 5 μL of 500 mM EDTA;
Add 10 μL of Enzyme/Substrate stock;
Add 10 μL of ATP Diluent to begin the enzyme reaction and mix on plate shaker;
Add 5 μL of 20% DMSO, 10 μL of assay buffer and 10 μL of ATP standard curve stock into standard curve wells;
Gently shake at 28° C. for 45 min.
4. Stop reaction and detect ADP
Prepare Detection Mix: According to the procedures described in the Assay kit, Alexa633 tracer, ADP antibody and stop & detect buffer were added into H2O and mixed thoroughly. Prepare Tracer Only control: According to the procedures described in the Assay kit, ADP Alexa633 tracer and stop & detect buffer were added to H2O and mixed throughly.
Prepare No Tracer control: According to the procedures described in the Assay kit, the stop & detect buffer was diluted with H2O;
Add 25 μL of detection mix, Tracer Only control and No Tracer control into corresponding wells, respectively;
The reaction plate was gently shaken at 28° C. for 1 h;
Florescence polarization (FP) was measured on TECAN F500. Excitation wavelength: 610 nm, Emission wavelength: 670 nm.
Compound well [ADP] represents the ADP concentration of the compound well. Positive control well [ADP] represents the ADP concentration of the 20% DMSO well. Conversion of mP value to ADP concentration is based on the formula which is determined by standard curve.
IC50: calculated using XL-Fit 2.0 software.

T1 sequence (P08581 956-1390 limits assumed): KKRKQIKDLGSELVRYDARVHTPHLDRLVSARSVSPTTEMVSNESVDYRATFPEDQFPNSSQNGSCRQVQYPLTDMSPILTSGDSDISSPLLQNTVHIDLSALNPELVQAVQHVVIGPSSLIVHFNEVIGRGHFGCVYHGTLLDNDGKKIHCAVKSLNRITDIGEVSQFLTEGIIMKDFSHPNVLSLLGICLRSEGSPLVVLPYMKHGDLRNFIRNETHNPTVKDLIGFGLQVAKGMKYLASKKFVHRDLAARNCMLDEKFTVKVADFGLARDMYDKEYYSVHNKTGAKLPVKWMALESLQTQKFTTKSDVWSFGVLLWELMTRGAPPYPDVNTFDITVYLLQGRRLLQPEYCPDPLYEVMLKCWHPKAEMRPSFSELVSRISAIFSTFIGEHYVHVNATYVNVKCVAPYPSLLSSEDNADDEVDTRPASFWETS

Row | IC50 | SMILES
1 | 1 to 100 nM | Cc1cnc(Nc2cnc3nnn(Cc4ccc5ncccc5c4)c3n2)s1 [Compound 176]
2 | 1 to 100 nM | CN(c1ccncc1)c1cnc2nnn(Cc3ccc4ncccc4c3)c2n1 [Compound 177]
3 | 1 to 100 nM | COc1cc(Nc2ccc3nnn(Cc4ccc5ncccc5c4)c3n2)ccn1 [Compound 179]
4 | 1 to 100 nM | COc1cncc(Nc2ccc3nnn(Cc4ccc5ncccc5c4)c3n2)c1 [Compound 180]
5 | 100 to 1000 nM | Cc1cccc(Nc2ccc3nnn(Cc4ccc5ncccc5c4)c3n2)n1 [Compound 181]
6 | 1 to 100 nM | Cc1cccc(Nc2ccc3nnn(Cc4ccc5ncccc5c4)c3n2)n1 [Compound 182]
7 | 1 to 100 nM | COc1ccnc(Nc2cnc3nnn(Cc4ccc5ncccc5c4)c3n2)c1 [Compound 183]
8 | 1 to 100 nM | COCCOc1ccnc(Nc2cnc3nnn(Cc4ccc5ncccc5c4)c3n2)c1 [Compound 185]
9 | 1 to 100 nM | COCCOc1cc(Nc2cnc3nnn(Cc4ccc5ncccc5c4)c3n2)ccn1 [Compound 186]
10 | 100 to 1000 nM | CNc1ccc(Nc2cnc3nnn(Cc4ccc5ncccc5c4)c3n2)cn1 [Compound 187]
11 | 1 to 100 nM | Cc1cccnc1Nc1cnc2nnn(Cc3ccc4ncccc4c3)c2n1 [Compound 188]
12 | 1 to 100 nM | Cn1ccc(Nc2ccc3nnn(Cc4ccc5ncccc5c4)c3n2)n1 [Compound 189]
13 | 1 to 100 nM | N#Cc1cc(Nc2cnc3nnn(Cc4ccc5ncccc5c4)c3n2)ccn1 [Compound 190]
14 | 1 to 100 nM | Cc1cc(Nc2cnc3nnn(Cc4ccc5ncccc5c4)c3n2)n[nH]1 [Compound 191]
15 | 1 to 100 nM | CNC(=O)c1cncc(Nc2cnc3nnn(Cc4ccc5ncccc5c4)c3n2)c1 [Compound 192]
16 | 1 to 100 nM | c1cnc2ccc(Cn3nnc4ncc(Nc5cncc(N6CCOCC6)c5)nc43)cc2c1 [Compound 193]
17 | 1 to 100 nM | OCCOc1cc(Nc2cnc3nnn(Cc4ccc5ncccc5c4)c3n2)ccn1 [Compound 194]
18 | 1 to 100 nM | COc1cc(Nc2cnc3nnn(Cc4ccc5ncccc5c4)c3n2)ccn1 [Compound 195]
19 | 1 to 100 nM | Cc1ccnc(Nc2cnc3nnn(Cc4ccc5ncccc5c4)c3n2)c1 [Compound 196]
20 | 1 to 100 nM | COc1cccc(Nc2cnc3nnn(Cc4ccc5ncccc5c4)c3n2)n1 [Compound 197]
21 | 1 to 100 nM | c1cnc2ccc(Cn3nnc4ncc(Nc5cc[nH]n5)nc43)cc2c1 [Compound 198]
22 | 1 to 100 nM | Cc1coc(Nc2cnc3nnn(Cc4ccc5ncccc5c4)c3n2)n1 [Compound 199]
23 | 1 to 100 nM | Cc1cc(Nc2cnc3nnn(Cc4ccc5ncccc5c4)c3n2)no1 [Compound 200]
24 | 100 to 1000 nM | OCCOc1ccnc(Nc2cnc3nnn(Cc4ccc5ncccc5c4)c3n2)c1 [Compound 201]
25 | 1 to 100 nM | COCCOc1cccc(Nc2cnc3nnn(Cc4ccc5ncccc5c4)c3n2)c1 [Compound 202]
26 | 1 to 100 nM | COCCNc1cncc(Nc2cnc3nnn(Cc4ccc5ncccc5c4)c3n2)c1 [Compound 203]

Row | IC50 | SMILES
27 | 100 to 1000 nM | COCCNc1ccnc(Nc2cnc3nnn(Cc4ccc5ncccc5c4)c3n2)c1 [Compound 204]
28 | 100 to 1000 nM | OCCNc1ccnc(Nc2cnc3nnn(Cc4ccc5ncccc5c4)c3n2)c1 [Compound 205]
29 | 100 to 1000 nM | O[C@@H]1CCC[C@H]1Nc1ccnc(Nc2cnc3nnn(Cc4ccc5ncccc5c4)c3n2)c1 [Compound 206]
30 | 1 to 100 nM | O[C@@H]1CCC[C@H]1Nc1cc(Nc2cnc3nnn(Cc4ccc5ncccc5c4)c3n2)ccn1 [Compound 207]
31 | 100 to 1000 nM | COCCOc1ccncc1Nc1cnc2nnn(Cc3ccc4ncccc4c3)c2n1 [Compound 208]
32 | 100 to 1000 nM | COCCNc1ccncc1Nc1cnc2nnn(Cc3ccc4ncccc4c3)c2n1 [Compound 209]
33 | 1 to 100 nM | COc1ccncc1Nc1cnc2nnn(Cc3ccc4ncccc4c3)c2n1 [Compound 210]
34 | 1 to 100 nM | c1cncc(Nc2cnc3nnn(Cc4ccc5ncccc5c4)c3n2)c1 [Compound 212]
35 | 1 to 100 nM | COc1cccnc1Nc1cnc2nnn(Cc3ccc4ncccc4c3)c2n1 [Compound 213]
36 | 1 to 100 nM | c1cnc2ccc(Cn3nnc4ccc(-n5ccnc5)nc43)cc2c1 [Compound 214]
37 | 1 to 100 nM | N#Cc1cc(Nc2ccc3nnn(Cc4ccc5ncccc5c4)c3n2)ccn1 [Compound 215]
38 | 100 to 1000 nM | COCCOc1ncccc1Nc1cnc2nnn(Cc3ccc4ncccc4c3)c2n1 [Compound 216]
39 | 1 to 100 nM | c1cnc2ccc(Cn3nnc4ncc(Nc5ccnc(O[C@H]6CCOC6)c5)nc43)cc2c1 [Compound 217]
40 | 1 to 100 nM | c1cnc2ccc(Cn3nnc4ncc(Nc5ccnc(O[C@@H]6CCOC6)c5)nc43)cc2c1 [Compound 218]
41 | 100 to 1000 nM | O[C@@H]1CCC[C@H]1Nc1ccnc(Nc2ccc3nnn(Cc4ccc5ncccc5c4)c3n2)c1 [Compound 219]
42 | 1 to 100 nM | FC(F)(F)c1ccnc(Nc2cnc3nnn(Cc4ccc5ncccc5c4)c3n2)c1 [Compound 220]
43 | 1 to 100 nM | FC(F)(F)c1cccc(Nc2cnc3nnn(Cc4ccc5ncccc5c4)c3n2)n1 [Compound 221]
44 | 1 to 100 nM | c1cnc2ccc(Cn3nnc4ncc(Nc5ccnc(NC6CCOC6)c5)nc43)cc2c1 (stereo not shown) [Compound 222]
45 | 1 to 100 nM | N#Cc1ccnc(Nc2cnc3nnn(Cc4ccc5ncccc5c4)c3n2)c1 [Compound 223]
46 | 1 to 100 nM | Cc1cc(Nc2cnc3nnn(Cc4ccc5ncccc5c4)c3n2)cc(C)n1 [Compound 224]
47 | 1 to 100 nM | N#Cc1ccc(Nc2cnc3nnn(Cc4ccc5ncccc5c4)c3n2)nc1 [Compound 225]
48 | 1 to 100 nM | OC1COCC1Nc1ccnc(Nc2cnc3nnn(Cc4ccc5ncccc5c4)c3n2)c1 (stereo not shown) [Compound 226]
49 | 1 to 100 nM | COCCOc1cccc(Nc2cnc3nnn(Cc4ccc5ncccc5c4)c3n2)n1 [Compound 227]
50 | 1 to 100 nM | OC1COCC1Nc1cc(Nc2cnc3nnn(Cc4ccc5ncccc5c4)c3n2)ccn1 (stereo not shown) [Compound 228]
51 | 1 to 100 nM | CN1CC[C@H](Nc2cc(Nc3cnc4nnn(Cc5ccc6ncccc6c5)c4n3)ccn2)C1 [Compound 229]
52 | 1 to 100 nM | c1cnc2ccc(Cn3nnc4ncc(Nc5ccnc(N6CCOCC6)c5)nc43)cc2c1 [Compound 230]

Row | IC50 | SMILES
53 | 100 to 1000 nM | CNc1cc(Nc2cnc3nnn(Cc4ccc5ncccc5c4)c3n2)ccn1 [Compound 231]
54 | 100 to 1000 nM | COc1ccc(Nc2ccc3nnn(Cc4ccc5ncccc5c4)c3n2)nc1 [Compound 234]
55 | 1 to 100 nM | Cc1cc(Nc2ccc3nnn(Cc4ccc5ncccc5c4)c3n2)ccn1 [Compound 235]
56 | 100 to 1000 nM | c1cnc2ccc(Cn3nnc4ccc(Nc5ccncc5)nc43)cc2c1 [Compound 236]
57 | 1 to 100 nM | c1cncc(Nc2ccc3nnn(Cc4ccc5ncccc5c4)c3n2)c1 [Compound 237]
58 | 1 to 100 nM | CN(c1ccnc(C#N)c1)c1cnc2nnn(Cc3ccc4ncccc4c3)c2n1 [Compound 239]
59 | 1 to 100 nM | OCCn1cc(Nc2cnc3nnn(Cc4ccc5ncsc5c4)c3n2)cn1 [Compound 240]
60 | 100 to 1000 nM | O[C@@H]1CCC[C@H]1Nc1ccc2nnn(Cc3ccc4ncccc4c3)c2n1 [Compound 241]
61 | 1 to 100 nM | OCC1CCN(c2ccc3nnn(Cc4ccc5ncccc5c4)c3n2)CC1 [Compound 245]
62 | 1 to 100 nM | OC1CCN(c2ccc3nnn(Cc4ccc5ncccc5c4)c3n2)C1 (stereo not shown) [Compound 246]
63 | 100 to 1000 nM | OC1(CNc2ccc3nnn(Cc4ccc5ncccc5c4)c3n2)CCCCC1 [Compound 247]
64 | 1 to 100 nM | c1cnc2ccc(Cn3nnc4ncc(Sc5ccncc5)nc43)cc2c1 [Compound 248]
65 | 100 to 1000 nM | c1cnc2ccc(Cn3nnc4ccc(OC5CCOCC5)nc43)cc2c1 [Compound 249]
66 | 1 to 100 nM | c1cnc2ccc(Cn3nnc4ncc(Oc5ccncc5)nc43)cc2c1 [Compound 250]
67 | 1 to 100 nM | c1ccc(Sc2cnc3nnn(Cc4ccc5ncccc5c4)c3n2)nc1 [Compound 252]
68 | 1 to 100 nM | c1cnc2ccc(Cn3nnc4ccc(NC5CCOCC5)nc43)cc2c1 [Compound 253]
69 | 1 to 100 nM | Clc1cncc(Oc2cnc3nnn(Cc4ccc5ncccc5c4)c3n2)c1 [Compound 254]
70 | 1 to 100 nM | Cc1cccc(Oc2cnc3nnn(Cc4ccc5ncccc5c4)c3n2)n1 [Compound 255]
71 | 100 to 1000 nM | c1ccc(Oc2cnc3nnn(Cc4ccc5ncccc5c4)c3n2)nc1 [Compound 257]
72 | 1 to 100 nM | c1cncc(Oc2cnc3nnn(Cc4ccc5ncccc5c4)c3n2)c1 [Compound 258]
73 | 1 to 100 nM | Nc1cccc(Oc2cnc3nnn(Cc4ccc5ncccc5c4)c3n2)n1 [Compound 259]
74 | 100 to 1000 nM | CC(=O)Nc1cc(-c2cnn(C)c2)nc2c1nnn2Cc1ccc2ncccc2c1 [Compound 261, N-(5-(1-methyl-1H-pyrazol-4-yl)-3-(quinolin-6-ylmethyl)-3H-[1,2,3]triazolo[4,5-b]pyridin-7-yl)acetamide]
75 | 100 to 1000 nM | Cn1cc(-c2cc(Cl)c3nnn(Cc4ccc5ncccc5c4)c3n2)cn1 [Compound 263, 6-((7-Chloro-5-(1-methyl-1H-pyrazol-4-yl)-3H-[1,2,3]triazolo[4,5-b]pyridin-3-yl)methyl)quinoline]
76 | 1 to 100 nM | COCCn1cc(-c2cnc3nnn(Cc4ccn5nccc5c4)c3n2)cn1 [Compound 268]

Source: US11896592B2, “Certain triazolopyridines and triazolopyrazines, compositions thereof and methods of use therefor” (Hutchison Medipharma Limited, priority 2009, dated 2024)
